Results on 34 compounds are retold here after patent US8088758B2, “17β-hydroxysteroid dehydrogenase type I inhibitors” (Abbott Products GmbH, priority 2003, dated 2012).

This assay addresses T1, recombinant human 17β-hydroxysteroid dehydrogenase type 1 (Homo sapiens, UniProt P14061).
T1 construct: made in house; host or cells: Sf9 insect cells (baculovirus, Bac to Bac Expression System)
T1 sequence (P14061 1-328): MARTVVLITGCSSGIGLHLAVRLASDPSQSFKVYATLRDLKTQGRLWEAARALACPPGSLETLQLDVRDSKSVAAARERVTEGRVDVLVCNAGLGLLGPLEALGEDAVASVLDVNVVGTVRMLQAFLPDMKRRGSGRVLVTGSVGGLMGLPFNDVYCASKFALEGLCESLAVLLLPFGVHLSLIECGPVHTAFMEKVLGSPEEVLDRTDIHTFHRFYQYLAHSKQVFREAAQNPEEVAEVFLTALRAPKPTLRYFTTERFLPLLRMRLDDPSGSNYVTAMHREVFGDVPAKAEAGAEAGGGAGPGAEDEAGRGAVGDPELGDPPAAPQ
In words: Inhibition of recombinant human 17β-hydroxysteroid dehydrogenase type 1 (conversion of 3H-estrone to estradiol, HPLC). In kind it is biochemical. The conditions noted are these: 30 nM 3H-estrone, 1 mM NADPH, 30 min at RT; for inhibition at 0.1 µM: inhibitor 100 nM, read-out: Inhibition of rec. 17β-HSD1 (% inhibition), 100 nM; for inhibition at 1 µM: inhibitor 1 μm, read-out: Inhibition of rec. 17β-HSD1 (% inhibition), 1 μm. Here is the method: 1. Inhibition of the 17β-hydroxysteroid Dehydrogenase Type 1 Enzyme
17β-HSD1 Purification: Recombinant baculovirus was generated by the “Bac to Bac Expression System” (Invitrogen). Recombinant bacmid was transfected to Sf9 insect cells using “Cellfectin Reagent” (Invitrogen). 60 h later cells were harvested; the microsomal fraction was isolated as described by Puranen et al. 1994. Aliquots were stored frozen until determination of enzymatic activity.
Assay—Inhibition of Recombinant Human 17β-hydroxysteroid Dehydrogenase Type 1:
Recombinant protein (0.1 μg/ml) was incubated in 20 mM KH2PO4 pH 7.4 with 30 nM 3H-estrone and 1 mM NADPH for 30 min at RT, in the presence of potential inhibitors at concentrations of 1 μM or 0.1 μM. Inhibitor stock solutions were prepared in DMSO. Final concentration of DMSO was adjusted to 1% in all samples. The enzyme reaction was stopped by addition of 10% trichloroacetic acid (final concentration). Samples were centrifuged in a microtiter plate at 4000 rpm for 10 min. Supernatants were applied to reverse phase HPLC on a Waters Symmetry C18 column, equipped with a Waters Sentry Guard column. Isocratic HPLC runs were performed at RT at a flow rate of 1 ml/min of acetonitrile:water 48:52 as running solvent. Radioactivity was monitored in the eluate by a Packard Flow Scintillation Analyzer. Total radioactivity for estrone and estradiol were determined in each sample and percent conversion of estrone to estradiol was calculated according to the following formula:
Percent inhibition was calculated as follows: % inhibition=100−% conversion

Regarding `COc1ccc2c(c1)CC[C@H]1[C@@H]3[C@H](CCCCC(=O)NCc4cccnc4)CC(=O)[C@@]3(C)CC[C@H]21` [Example 338], the inhibition at 0.1 µM stood at 28.7% and the inhibition at 1 µM turned out to be 84.6%.

In the case of `COc1ccc2c(c1)CC[C@H]1[C@@H]3[C@H](CCCCC(=O)NCc4ccncc4)CC(=O)[C@@]3(C)CC[C@H]21` [Example 339], the inhibition at 0.1 µM came out at 25.9% and the inhibition at 1 µM came out at 82.9%.

Consider `COc1ccc2c(c1)CC[C@H]1[C@@H]3[C@H](CCCCC(=O)NCc4ccccc4)CC(=O)[C@@]3(C)CC[C@H]21` [Example 340], for which the inhibition at 0.1 µM amounted to 51.4% and the inhibition at 1 µM stood at 91.9%.

For `COc1ccc2c(c1)CC[C@H]1[C@@H]3[C@H](CCCCC(=O)NCc4ccccc4OC)CC(=O)[C@@]3(C)CC[C@H]21` [Example 341], the inhibition at 0.1 µM came out at 38.1% and the inhibition at 1 µM turned out to be 88%.

In the case of `COc1ccc2c(c1)CC[C@H]1[C@@H]3[C@H](CCCCC(=O)NCc4cccc(F)c4)CC(=O)[C@@]3(C)CC[C@H]21` [Example 342], the inhibition at 0.1 µM came to 40.4% and the inhibition at 1 µM is 89.2%.

On to `COc1ccc2c(c1)CC[C@H]1[C@@H]3[C@H](CCCCC(=O)NCc4ccc(Cl)cc4)CC(=O)[C@@]3(C)CC[C@H]21` [Example 343], for which the inhibition at 0.1 µM was 47.1% and the inhibition at 1 µM was found to be 86%.

Consider `COc1ccc2c(c1)CC[C@H]1[C@@H]3[C@H](CCCCC(=O)N(C)Cc4ccccc4)CC(=O)[C@@]3(C)CC[C@H]21` [Example 344], for which the inhibition at 0.1 µM turned out to be 39.8% and the inhibition at 1 µM stood at 88.9%.

For the compound `CCCCNC(=O)CCCC[C@@H]1CC(=O)[C@@]2(C)CC[C@@H]3c4ccc(OC)cc4CC[C@H]3[C@H]12` [Example 345], the inhibition at 0.1 µM came to 33% and the inhibition at 1 µM was found to be 85.6%.

As for `COc1ccc2c(c1)CC[C@H]1[C@@H]3[C@H](CCCCC(=O)NCCc4cccs4)CC(=O)[C@@]3(C)CC[C@H]21` [Example 346], the inhibition at 0.1 µM is 58.2% and the inhibition at 1 µM amounted to 91.7%.

Consider `COc1ccc2c(c1)CC[C@H]1[C@@H]3[C@H](CCCCC(=O)NCCc4c[nH]c5c(C)cccc45)CC(=O)[C@@]3(C)CC[C@H]21` [Example 347], for which the inhibition at 0.1 µM amounted to 38% and the inhibition at 1 µM turned out to be 77.2%.

Consider `COc1ccc2c(c1)CC[C@H]1[C@@H]3[C@H](CCCCCC(=O)NC4CCCCC4)CC(=O)[C@@]3(C)CC[C@H]21` [Example 348], for which the inhibition at 0.1 µM turned out to be 30.5% and the inhibition at 1 µM was 82.4%.

With `COc1ccc2c(c1)CC[C@H]1[C@@H]3[C@H](CCCCCC(=O)NCc4ccco4)CC(=O)[C@@]3(C)CC[C@H]21` [Example 350], the inhibition at 0.1 µM was determined as 27.7% and the inhibition at 1 µM was determined as 80.7%.

With `COc1ccc2c(c1)CC[C@H]1[C@@H]3[C@H](CCCCCC(=O)NCc4ccc5c(c4)OCO5)CC(=O)[C@@]3(C)CC[C@H]21` [Example 353], the inhibition at 0.1 µM was determined as 46.3% and the inhibition at 1 µM came out at 89.5%.

In the case of `COc1ccc2c(c1)CC[C@H]1[C@@H]3[C@H](CCCCCC(=O)N4CCOCC4)CC(=O)[C@@]3(C)CC[C@H]21` [Example 354], the inhibition at 0.1 µM turned out to be 28.7% and the inhibition at 1 µM was 80.3%.

Turning to `COc1ccc2c(c1)CC[C@H]1[C@@H]3[C@H](CCCCCC(=O)N4CCSCC4)CC(=O)[C@@]3(C)CC[C@H]21` [Example 355], the inhibition at 0.1 µM is 34.4% and the inhibition at 1 µM amounted to 85.1%.

With `COc1ccc2c(c1)CC[C@H]1[C@@H]3[C@H](CCCCCC(=O)NCc4cccnc4)CC(=O)[C@@]3(C)CC[C@H]21` [Example 356], the inhibition at 0.1 µM was determined as 26.9% and the inhibition at 1 µM is 83.9%.

With `COc1ccc2c(c1)CC[C@H]1[C@@H]3[C@H](CCCCCC(=O)NCc4ccncc4)CC(=O)[C@@]3(C)CC[C@H]21` [Example 357], the inhibition at 0.1 µM was determined as 31.1% and the inhibition at 1 µM was found to be 85.2%.

With `COc1ccc2c(c1)CC[C@H]1[C@@H]3[C@H](CCCCCC(=O)NCc4ccccc4)CC(=O)[C@@]3(C)CC[C@H]21` [Example 359], the inhibition at 0.1 µM was determined as 40.5% and the inhibition at 1 µM came out at 88.3%.

For `COc1ccc2c(c1)CC[C@H]1[C@@H]3[C@H](CCCCCC(=O)NCc4ccccc4OC)CC(=O)[C@@]3(C)CC[C@H]21` [Example 360], the inhibition at 0.1 µM amounted to 41.5% and the inhibition at 1 µM was 85.6%.

On to `COc1ccc2c(c1)CC[C@H]1[C@@H]3[C@H](CCCCCC(=O)NCc4cccc(F)c4)CC(=O)[C@@]3(C)CC[C@H]21` [Example 361], for which the inhibition at 0.1 µM was 35.8% and the inhibition at 1 µM was found to be 84.2%.

Consider `COc1ccc2c(c1)CC[C@H]1[C@@H]3[C@H](CCCCCC(=O)NCc4ccc(Cl)cc4)CC(=O)[C@@]3(C)CC[C@H]21` [Example 362], for which the inhibition at 0.1 µM amounted to 35.1% and the inhibition at 1 µM came out at 75.1%.

Take `COc1ccc2c(c1)CC[C@H]1[C@@H]3[C@H](CCCCCC(=O)N(C)Cc4ccccc4)CC(=O)[C@@]3(C)CC[C@H]21` [Example 364]: the inhibition at 0.1 µM came to 48.7% and the inhibition at 1 µM is 90.8%.

On to `CCCCNC(=O)CCCCC[C@@H]1CC(=O)[C@@]2(C)CC[C@@H]3c4ccc(OC)cc4CC[C@H]3[C@H]12` [Example 365], for which the inhibition at 0.1 µM amounted to 33.7% and the inhibition at 1 µM is 86.4%.

Turning to `COc1ccc2c(c1)CC[C@H]1[C@@H]3[C@H](CCCCCC(=O)NCCc4cccs4)CC(=O)[C@@]3(C)CC[C@H]21` [Example 366], the inhibition at 0.1 µM worked out at 56.3% and the inhibition at 1 µM was determined as 94.4%.

For `COc1ccc2c(c1)CC[C@H]1[C@@H]3[C@H](CCCCCC(=O)NCCc4c[nH]c5c(C)cccc45)CC(=O)[C@@]3(C)CC[C@H]21` [Example 367], the inhibition at 0.1 µM was 51.5% and the inhibition at 1 µM is 73.5%.

Turning to `CCOC(=O)CNNC(=O)CCCCC[C@@H]1CC(=O)[C@@]2(C)CC[C@@H]3c4ccc(OC)cc4CC[C@H]3[C@H]12` [Example 414], the inhibition at 0.1 µM was found to be 44.9% and the inhibition at 1 µM is 49.9%.

On to `COc1cccc(NC(=O)NCCC[C@@H]2CC(=O)[C@@]3(C)CC[C@@H]4c5ccc(OC)cc5CC[C@H]4[C@H]23)c1` [Example 443], for which the inhibition at 0.1 µM came out at 39.8% and the inhibition at 1 µM amounted to 84.1%.

Take `COc1ccc(NC(=O)NCCC[C@@H]2CC(=O)[C@@]3(C)CC[C@@H]4c5ccc(OC)cc5CC[C@H]4[C@H]23)cc1` [Example 446]: the inhibition at 0.1 µM worked out at 72.4% and the inhibition at 1 µM was determined as 94.2%.

For `COc1ccc2c(c1)CC[C@H]1[C@@H]3[C@H](CCCNC(=O)NC(C)C)CC(=O)[C@@]3(C)CC[C@H]21` [Example 449], the inhibition at 0.1 µM is 26% and the inhibition at 1 µM is 82.7%.

For `COc1ccc2c(c1)CC[C@H]1[C@@H]3[C@H](CCCNC(=O)NC4CCCCC4)CC(=O)[C@@]3(C)CC[C@H]21` [Example 450], the inhibition at 0.1 µM stood at 34% and the inhibition at 1 µM worked out at 80.7%.

Turning to `COc1ccc2c(c1)CC[C@H]1[C@@H]3[C@H](CCCNC(=O)Nc4cccc5ccccc45)CC(=O)[C@@]3(C)CC[C@H]21` [Example 451], the inhibition at 0.1 µM turned out to be 32.3% and the inhibition at 1 µM was 74.6%.

Take `COc1ccc2c(c1)CC[C@H]1[C@@H]3[C@H](CCCNC(=O)NCc4ccccc4)CC(=O)[C@@]3(C)CC[C@H]21` [Example 452]: the inhibition at 0.1 µM was found to be 38.6% and the inhibition at 1 µM was determined as 82.9%.

For the compound `COc1ccc2c(c1)CC[C@H]1[C@@H]3[C@H](CCCNC(=O)Nc4ccc5ccccc5c4)CC(=O)[C@@]3(C)CC[C@H]21` [Example 460], the inhibition at 0.1 µM turned out to be 50.1% and the inhibition at 1 µM turned out to be 77.2%.

Consider `COc1ccc(NC(=O)NCCCC[C@@H]2CC(=O)[C@@]3(C)CC[C@@H]4c5ccc(OC)cc5CC[C@H]4[C@H]23)cc1` [Example 471], for which the inhibition at 0.1 µM came to 28.7% and the inhibition at 1 µM came to 77%.

The inhibition is how much of the control response was suppressed.
